What all share (format): biochemical
In one experiment the target is Pim2 kinase (Homo sapiens, UniProt Q9P1W9). Kind of experiment: Pim2 ATP depletion assay.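 As to all read-outs here: Luciferase-based luminescent readout of ATP remaining after PIM2 phosphorylates a BAD peptide, final 5 nM enzyme, 4 µM ATP, 10 µM peptide, 2.5% DMSO, run to roughly half ATP consumption.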 Particulars: for IC50: read-out: IC50 (μM) PIM2; for pIC50: read-out: PIM2 IC50.
A further experiment has as its target Pim3 kinase (Homo sapiens, UniProt Q86V86). Description: Pim3 ATP depletion assay. Conditions: for IC50: read-out: IC50 (μM) PIM3; for pIC50: read-out: PIM3 IC50.
For another experiment, the target named is Pim1 kinase (Homo sapiens, UniProt P11309). Kind of experiment: Pim1 ATP depletion assay.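 As to all read-outs here: Luciferase-luciferin luminescence readout of residual ATP after PIM1 transfers phosphate to a peptide substrate, 40 µM ATP added, reaction run to roughly half ATP consumption.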 Particulars: Pim1 ATP depletion assay; for IC50: read-out: IC50 (μM) PIM1; for pIC50: read-out: PIM1 IC50.

Molecules are shown by their SMILES. pIC50: −log10 of the molar value. Like-named read-outs stand apart in the source and are kept apart here.

The values that follow come from patent US20140249135A1, “PIM KINASE INHIBITORS AND METHODS OF THEIR USE” (NOVARTIS AG, priority 2007, published 2014).

Chain of Pim1 kinase (P11309 whole entry): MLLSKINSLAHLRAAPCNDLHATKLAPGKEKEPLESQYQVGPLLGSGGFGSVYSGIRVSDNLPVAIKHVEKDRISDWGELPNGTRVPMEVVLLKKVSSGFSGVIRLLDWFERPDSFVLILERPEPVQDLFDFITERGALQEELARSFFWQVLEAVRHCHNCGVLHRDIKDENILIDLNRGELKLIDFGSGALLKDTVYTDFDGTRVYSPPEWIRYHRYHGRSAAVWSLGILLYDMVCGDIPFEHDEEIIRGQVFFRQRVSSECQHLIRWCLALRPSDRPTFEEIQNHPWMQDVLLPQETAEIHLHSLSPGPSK
Chain of Pim2 kinase (Q9P1W9 whole entry): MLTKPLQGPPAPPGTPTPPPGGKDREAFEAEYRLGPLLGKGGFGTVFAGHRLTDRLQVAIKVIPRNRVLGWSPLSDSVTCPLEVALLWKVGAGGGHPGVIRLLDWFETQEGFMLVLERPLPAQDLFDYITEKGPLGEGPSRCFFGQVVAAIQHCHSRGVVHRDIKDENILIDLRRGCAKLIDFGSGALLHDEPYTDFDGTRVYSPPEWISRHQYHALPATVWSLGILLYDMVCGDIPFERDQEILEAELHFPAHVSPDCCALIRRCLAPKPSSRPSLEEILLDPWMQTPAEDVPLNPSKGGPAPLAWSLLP

In the case of `Nc1cnc(-c2c(F)cccc2F)nc1C(=O)Nc1cnccc1N1CC[C@@H](F)[C@H](N)C1` (stereo in doubt) [Example 256, 5-Amino-2-(2,6-difluoro-phenyl)-pyrimidine-4-carboxylic acid (3-amino-4-fluoro-3,4,5,6-tetrahydro-2H-[1,4′]bipyridinyl-3′-yl)-amide], the IC50 on Pim2 kinase, on Pim3 kinase and on Pim1 kinase was less than 1 µM throughout.
With `CC(C)NC(=O)c1ccc(F)c(-c2ccc(N)c(C(=O)Nc3cnccc3N3C[C@@H](N)C[C@H](OC(=O)c4ccccc4)C3)n2)c1` (stereo in doubt) [Example 294, Benzoic acid 5-amino-3′-{[3-amino-6-(2-fluoro-5-isopropylcarbamoyl-phenyl)-pyridine-2-carbonyl]-amino}-3,4,5,6-tetrahydro-2H-[1,4′]bi-pyridinyl-3-yl ester], the IC50 on Pim2 kinase, on Pim3 kinase and on Pim1 kinase was less than 1 µM in each case.
For `Nc1ccc(C2CC3CCC2C3)nc1C(=O)Nc1cnccc1N1CCC[C@H](N)C1` (stereo in doubt) [Example 646, 3-Amino-6-bicyclo[2.2.1]hept-2-yl-pyridine-2-carboxylic acid (3-amino-3,4,5,6-tetrahydro-2H-[1,4′]bipyridinyl-3′-yl)-amide], the pIC50 on Pim2 kinase, on Pim3 kinase and on Pim1 kinase was more than 6.00 each time.
In the case of `Nc1cnc(-c2ccccc2F)nc1C(=O)Nc1cnccc1N1CC[C@@H](O)[C@H](N)C1` (stereo in doubt) [Example 662, 5-Amino-2-(2-fluoro-phenyl)-pyrimidine-4-carboxylic acid (3-amino-4-hydroxy-3,4,5,6-tetrahydro-2H-[1,4′]bi-pyridinyl-3′-yl)-amide], the pIC50 on Pim2 kinase, at Pim3 kinase and at Pim1 kinase was more than 6.00 throughout.
For the compound `Nc1cnc(-c2c(F)cccc2F)nc1C(=O)Nc1cnccc1N1CC[C@@H](O)[C@H](N)C1` (stereo in doubt) [Example 663, 5-Amino-2-(2,6-difluoro-phenyl)-pyrimidine-4-carboxylic acid (3-amino-4-hydroxy-3,4,5,6-tetrahydro-2H-[1,4′]bipyridinyl-3′-yl)-amide], the pIC50 on Pim2 kinase, on Pim3 kinase and on Pim1 kinase was more than 6.00 throughout.
For the compound `CC(C)Oc1ccc(F)c(-c2ccc(N)c(C(=O)Nc3cnccc3N3CC[C@@H](O)[C@H](N)C3)n2)c1F` (stereo in doubt) [Example 665, 3-Amino-6-(2,6-difluoro-3-isopropoxy-phenyl)-pyridine-2-carboxylic acid (3-amino-4-hydroxy-3,4,5,6-tetrahydro-2H-[1,4′]bipyridinyl-3′-yl)-amide], the pIC50 at Pim2 kinase, on Pim3 kinase and at Pim1 kinase was more than 6.00 throughout.
Take `CC(C)Oc1ccc(F)c(-c2ccc(N)c(C(=O)Nc3cnccc3N3CC[C@@H](N)[C@H](O)C3)n2)c1F` (stereo in doubt) [Example 667, 3-Amino-6-(2,6-difluoro-3-isopropoxy-phenyl)-pyridine-2-carboxylic acid (4-amino-3-hydroxy-3,4,5,6-tetrahydro-2H-[1,4′]bipyridinyl-3′-yl)-amide]: the pIC50 at Pim2 kinase, at Pim3 kinase and on Pim1 kinase was more than 6.00 in each case.
On to `Nc1cnc(-c2ccccc2)nc1C(=O)Nc1cnccc1N1CC[C@@H](O)[C@H](N)C1` (stereo in doubt) [Example 670, 5-Amino-2-phenyl-pyrimidine-4-carboxylic acid (3-amino-4-hydroxy-3,4,5,6-tetrahydro-2H-[1,4′]bipyridinyl-3′-yl)-amide], for which the pIC50 on Pim2 kinase, at Pim3 kinase and at Pim1 kinase was more than 6.00 in each case.
Regarding `CC1(O)CCCN(c2ccncc2NC(=O)c2nc(-c3ccccc3F)ccc2N)C1` (stereo not drawn) [Example 162, 3-Amino-6-(2-fluoro-phenyl)-pyridine-2-carboxylic acid (3-hydroxy-3-methyl-3,4,5,6-tetra-hydro-2H-[1,4′]bipyridinyl-3′-yl)-amide], the IC50 at Pim2 kinase, at Pim3 kinase and on Pim1 kinase was less than 1 µM throughout.
With `Nc1ccc(-c2c(F)cccc2F)nc1C(=O)Nc1cnccc1N1CCCCCCC1` [Example 167, 3-Amino-6-(2,6-difluoro-phenyl)-pyridine-2-carboxylic acid (4-azocan-1-yl-pyridin-3-yl)-amide], the figures for the IC50 at Pim2 kinase, at Pim3 kinase and on Pim1 kinase were 1 to 10 µM, less than 1 µM and less than 1 µM, respectively.
As for `Nc1ccc(-c2c(F)cccc2F)nc1C(=O)Nc1cnccc1N1CCCOCC1` [Example 168, 3-Amino-6-(2,6-difluoro-phenyl)-pyridine-2-carboxylic acid (4-[1,4]oxazepan-4-yl-pyridin-3-yl)-amide], the IC50 on Pim2 kinase, at Pim3 kinase and on Pim1 kinase was less than 1 µM throughout.
`Nc1ccc(-c2c(F)cccc2F)nc1C(=O)Nc1cnccc1N1CCCCCC1` [Example 169, 3-Amino-6-(2,6-difluoro-phenyl)-pyridine-2-carboxylic acid (4-azepan-1-yl-pyridin-3-yl)-amide]: the 50% inhibitory concentration (IC50) on Pim2 kinase, at Pim3 kinase and on Pim1 kinase was less than 1 µM in each case.
For the compound `NC(=O)c1ccc(N2CCCCC2)c(NC(=O)c2nccnc2N)c1` [Example 170, 3-amino-N-(5-carbamoyl-2-(piperidin-1-yl)phenyl)pyrazine-2-carboxamide], the IC50 at Pim2 kinase was 1 to 10 µM; on Pim3 kinase, less than 1 µM; at Pim1 kinase, less than 1 µM.
Regarding `NC1CCCN(c2ccncc2NC(=O)c2cnccn2)C1` (stereo not drawn) [Example 197, N-[4-(3-aminopiperidin-1-yl)-pyridin-3-yl]pyrazine-2-carboxamide], the half-inhibitory concentration (IC50) on Pim2 kinase, on Pim3 kinase and on Pim1 kinase was more than 25 µM throughout.
For the compound `Cc1cnc(C(=O)Nc2cnccc2N2CCCC(N)C2)cn1` (stereo not drawn) [Example 198, N-[4-(3-aminopiperidin-1-yl)pyridin-3-yl]-5-methyl-pyrazine-2-carboxamide], the half-inhibitory concentration (IC50) on Pim2 kinase, at Pim3 kinase and on Pim1 kinase was more than 25 µM throughout.
As for `Nc1ncccc1C(=O)Nc1cnccc1N1CCCC(N)C1` (stereo not drawn) [Example 200, 2-amino-N-[4-(3-aminopiperidin-1-yl)pyridin-3-yl]nicotinamide], the figures for the IC50 on Pim2 kinase, on Pim3 kinase and on Pim1 kinase were more than 25 µM, more than 25 µM and 10 to 25 µM, respectively.
Regarding `CC(=O)c1ccc(N2CCC(N)CC2)c(NC(=O)c2nccnc2N)c1` [Example 220, N-[5-acetyl-2-(4-aminopiperidin-1-yl)phenyl]-3-aminopyrazine-2-carboxamide], the concentration for half-maximal inhibition (IC50) on Pim2 kinase was 10 to 25 µM; on Pim3 kinase, less than 1 µM; on Pim1 kinase, less than 1 µM.
As for `CC1CC(N)CN(c2ccncc2NC(=O)c2ccc(F)c(-c3ccccc3F)n2)C1` (stereo not drawn) [Example 287, 5-Fluoro-6-(2-fluoro-phenyl)-pyridine-2-carboxylic acid (3-amino-5-methyl-3,4,5,6-tetra-hydro-2H-[1,4′]bipyridinyl-3′-yl)-amide], the IC50 at Pim3 kinase is less than 1 µM.
For `Nc1ccc(C2CCCCC2)nc1C(=O)Nc1cnccc1N1CCC[C@H](N)C1` [Example 636, 3-Amino-6-cyclohexyl-pyridine-2-carboxylic acid (3-amino-3,4,5,6-tetrahydro-2H-[1,4′]bipyridinyl-3′-yl)-amide], the negative-log IC50 (pIC50) at Pim3 kinase and at Pim1 kinase was more than 6.00 each time.

One may read the IC50 as the point on the concentration scale where inhibition reaches its midpoint. For orientation: pIC50 means the negative decadic logarithm of the IC50, by convention in mol/L.
